Assay [1] deals with T1, TRPC5 channel (Rattus norvegicus, UniProt Q8VD38).
T1 construct: Acutely isolated glomeruli were prepared as described above; from tissue; host or cells: acutely isolated glomeruli (podocytes) of AT1R Tg and WT rats
T1 sequence (Q8VD38 1-974): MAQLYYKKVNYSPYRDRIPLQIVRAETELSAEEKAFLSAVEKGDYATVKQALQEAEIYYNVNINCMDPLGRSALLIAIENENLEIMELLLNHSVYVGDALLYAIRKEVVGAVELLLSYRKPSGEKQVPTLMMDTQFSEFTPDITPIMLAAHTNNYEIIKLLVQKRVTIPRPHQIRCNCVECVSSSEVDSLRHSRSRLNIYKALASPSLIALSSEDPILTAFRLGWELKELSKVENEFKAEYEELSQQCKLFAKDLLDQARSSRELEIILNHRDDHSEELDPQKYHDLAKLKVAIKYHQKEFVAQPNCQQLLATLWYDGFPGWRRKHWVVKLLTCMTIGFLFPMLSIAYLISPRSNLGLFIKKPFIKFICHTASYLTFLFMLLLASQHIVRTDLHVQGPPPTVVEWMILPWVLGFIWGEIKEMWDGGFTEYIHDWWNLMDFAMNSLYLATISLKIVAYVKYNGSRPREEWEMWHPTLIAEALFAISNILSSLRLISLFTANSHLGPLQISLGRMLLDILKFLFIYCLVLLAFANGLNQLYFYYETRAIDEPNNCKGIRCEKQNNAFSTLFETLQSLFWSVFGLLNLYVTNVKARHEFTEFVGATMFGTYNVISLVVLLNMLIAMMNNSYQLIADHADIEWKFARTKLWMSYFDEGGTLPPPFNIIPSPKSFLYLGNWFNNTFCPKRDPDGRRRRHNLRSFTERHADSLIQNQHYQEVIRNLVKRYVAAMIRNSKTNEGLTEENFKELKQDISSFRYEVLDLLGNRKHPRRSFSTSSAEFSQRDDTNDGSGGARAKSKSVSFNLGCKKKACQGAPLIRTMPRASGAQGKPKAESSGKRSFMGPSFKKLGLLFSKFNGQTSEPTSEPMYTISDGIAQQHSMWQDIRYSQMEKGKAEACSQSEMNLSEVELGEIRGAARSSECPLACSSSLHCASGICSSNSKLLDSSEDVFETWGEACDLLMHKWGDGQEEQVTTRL
As to the kind of experiment: Glomerular inside-out single-channel recordings, riluzole-activated TRPC5 channel activity. In kind it is cell-based. Particulars: Rilu 3 μM. As to the method:
Acute glomeruli isolation and Ca^2+-imaging: WT and AT1R Tg littermates were killed and kidneys were quickly dissected and washed with ice-cold PBS. After isolation using the sieving technique as previously described (11), glomeruli were incubated with the Ca^2+ indicator Fura2-AM (1 μM; Invitrogen) at 37° C. for 15 min. The extracellular solution for Ca^2+-imaging contained (in mM) 140 NaCl, 5 KCl, 10 HEPES, 2 MgCl2, 2 CaCl2, 10 glucose, with pH7.4 adjusted with NaOH. Glomerular Ca^2+-imaging was performed using an inverted microscope (Olympus IX70) with a high-speed CCD camera (Hamamatsu Photonics). Images were taken and analyzed using the Metafluor software (Molecular Devices). It should be noted that Fura-2 is most often taken up by podocytes at the periphery of the isolated glomerulus, but the specificity of recordings in podocytes is best confirmed by patch clamp electrophysiology, as described below.
Glomerular single-channel recordings: Acutely isolated glomeruli were prepared as described above. Single-channel recordings were carried out using an Axopatch 200B and Digidata 1550A (Molecular Devices). Bath and pipette solutions for glomerular single-channel recording contained (in mM) 135 CH3SO3Na, 5 CsCl, 2 CaCl2, 1 MgCl2, 10 HEPES, and 10 glucose with pH7.4 adjusted with NaOH. Once in the inside-out configuration, the bath solution was replaced by intracellular solution, containing (in mM) 135 CH3SO3Cs, 10 CsCl, 3 MgATP, 0.2 EGTA, 0.13 CaCl2, and 10 HEPES with pH 7.4 adjusted with CsOH. Patch pipettes, with resistance of 4-8 MΩ, were prepared using a two step-protocol (P-97, Sutter Instrument). Pipettes were fire-polished before use. For inside-out configuration, a giga-seal (>10 GΩ) was established prior to membrane rupture. Data was acquired at 10 kHz sampling frequency, and filtered with low-pass filtering at 1 kHz. Holding membrane potential was at −60 mV. Single-channel analysis was carried out using Clampfit 10.4 software (Molecular Devices).

For assay [2], the system named is caAT1R podocytes. As to the kind of experiment: ROS assay in caAT1R expressing podocytes. In kind it is cell-based, mouse. Particulars: 30 μM ML204, 30 μM AC1903 or 50 μM NSC23677 for 36 hours. How it is done:
Podocyte culture and viral transduction: Immortalized mouse podocytes were cultured as previously described (10, 11). Podocyte viral transduction was performed using lentivirus as previously described (10, 11). Briefly, lentivirus production was carried out in HEK293T cells at 60% confluence, and viral particles were collected two days after transfection and purified by centrifugation at 1,000 rcf for 5 min. Purified lentivirus was frozen at −80° C. until further use. Podocytes were transduced with lentivirus after 7 days of differentiation, and assays were performed 5 days after viral transduction.
For experiments in FIG. 4B/C, pCDNA3.1 AT1AR-Δ324 (rat AT1R NM_030985.4) containing HA tag (Plasmid #45635, Addgene) underwent site directed mutagenesis (Agilent) to generate the N111S substitution. For FIG. 4B, differentiated podocytes were transduced with the AT1A-N111S/Δ324 construct in six-well plates. Six days after viral transduction, cells were treated with either vehicle, 30 μM ML204, 30 μM AC1903 or 50 μM NSC23677 for 36 hours. Intracellular production of ROS was measured using a cell-permeable fluorescent dye, 5-(and-6)-chloromethyl-2′,7′-dichlorodihydrofluorescein diacetate, acetyl ester (CM-H2DCFDA, Molecular Probes). Cells were incubated with 5 μM CM-H2DCFDA at 37° C. for 45 min in Hanks' balanced salt solution (HBSS). Cells were then collected, resuspended in HBSS, stained with propidium iodide and the fluorescence intensity was assessed by flow cytometry using MACSQuant Analyzer (Miltenyi Biotec, Bergisch Gladbach, Germany). Living cells, which were PI negative, were selected by FACS gating and the fluorescence of CM-H2DCFDA was recorded on the FL-1 channel (525 nm). For FIG. 4C, differentiated podocytes were transduced with the AT1A-N111S/Δ324 construct in 96 well plates. Six days after transduction, the cells were treated with either vehicle, 30 μM ML204, 30 μM AC1903 or 50 μM NSC23677 for 36 hours. […]

`c1ccc(Cn2c(NCc3ccco3)nc3ccccc32)cc1` [AC1903]: in assay [1] (AT1R Tg rats, Advanced, AC1903 1 μM), the “block of TRPC5 channel activity, inside-out recordings in intact glomeruli” value was “blocks TRPC5 channel activity”. For the same compound, the “caAT1R-induced ROS generation” value in assay [2] was “blocked caAT1R-induced ROS generation”.

On to `Cc1cc(N2CCCCC2)nc2ccccc12` [ML204, reference compound], for which the “inhibition of riluzole-activated channel activity, inside-out recordings of podocytes” value in assay [1] (AT1R Tg rat glomeruli at disease onset (Onset), ML204 1 μM) is listed as “significant ML204 inhibition of channel activity”. Also, in assay [1] (AT1R Tg rat glomeruli, established disease (Advanced), ML204 1 μM), the “inhibition of riluzole-activated conductance, inside-out recordings of podocytes” value is “inhibition of a much greater riluzole-activated conductance”. Further, in assay [2], the “caAT1R-induced ROS generation” value is given as “blocked caAT1R-induced ROS generation”.

These data come from US11370769B2, “TRPC5 inhibitors and methods of using same” (BOARD OF REGENTS OF THE UNIVERSITY OF NEBRASKA, priority 2017, dated 2022).
